Source: PMC5291411, “Cytotoxic conjugates of betulinic acid and substituted triazoles prepared by Huisgen Cycloaddition from 30-azidoderivatives” (PLoS ONE, 2017)

Assays:
[1] = system: U2OS; experiment: Cytotoxic MTS assay, U2OS; type: cell-based; conditions: Homo sapiens, 72 h, osteosarcoma
Description: (§1) Cytotoxic activity of all synthesized compounds was investigated in vitro against eight human cancer cell lines and two non-tumor fibroblasts using the standard MTS test (Table 1). The cancer cell lines were derived from T-lymphoblastic leukemia CCRF-CEM, leukemia K562 and their multiresistant counterparts expressing P-glycoprotein, MRP1 and LRP proteins (CEM-DNR, K562-TAX), solid tumors including lung (A549) and colon (HCT116, HCT116p53-/-) carcinomas, osteosarcoma cell line (U2OS), and for comparison, tests were performed on two human non-cancer fibroblast cell lines (BJ, MRC-5).
(§2) Biological assays were performed in concordance with our previous publications [[29], [58]; [60]; [61]]. All cells (if not indicated otherwise) were purchased from the American Tissue Culture Collection (ATCC). The CCRF-CEM line is derived from T lymphoblastic leukemia, evincing high chemosenzitivity, K562 represent cells from an acute myeloid leukemia patient sample with bcr-abl translocation, U2OS line is derived from osteosarcoma, HCT116 is colorectal tumor cell line and its p53 gene knock-down counterpart (HCT116p53-/-, Horizon Discovery Ltd, UK) is a model of human cancers with p53 mutation frequently associated with poor prognosis, A549 line is lung adenocarcinoma. The daunorubicin resistant subline of CCRF-CEM cells (CEM-DNR bulk) and paclitaxel resistant subline K562-TAX were selected in our laboratory by the cultivation of maternal cell lines in increasing concentrations of daunorubicine or paclitaxel, respectively. The CEM-DNR bulk cells overexpress MRP-1 and P-glycoprotein protein, while K562-TAX cells overexpress P-glycoprotein only. Both proteins belong to the family of ABC transporters and are involved in the primary and/or acquired multidrug resistance phenomenon. MRC-5 and BJ cell lines were used as a non-tumor control and represent human fibroblasts. The cells were maintained in nunc/corning 80 cm^2 plastic tissue culture flasks and cultured in cell culture medium according to ATCC or Horizon recommendations (DMEM/RPMI 1640 with 5 g/L glucose, 2 mM glutamine, 100 U/mL penicillin, […] streptomycin, 10% fetal calf serum, and NaHCO3).
(§3) MTS assay was performed at Institute of Molecular and Translational Medicine by robotic platform (HighResBiosolutions). Cell suspensions were prepared and diluted according to the particular cell type and the expected target cell density (25000–35000 cells/mL based on cell growth characteristics). Cells were added by automatic pipetor (30 μL) into 384 well microtiter plates. All tested compounds were dissolved in 100% DMSO and four-fold dilutions of the intended test concentration were added in 0.15 μL aliquots at time zero to the microtiter plate wells by the echoacustic non-contact liquid handler Echo550 (Labcyte). The experiments were performed in technical duplicates and three biological replicates at least. The cells were incubated with the tested compounds for 72 h at 37°C, in a 5% CO2 atmosphere at 100% humidity. At the end of the incubation period, the cells were assayed by using the MTS test. Aliquots (5 μL) of the MTS stock solution were pipetted into each well and incubated for additional 1–4 h. After this incubation period, the optical density (OD) was measured at 490 nm with an Envision reader (Perkin Elmer). Tumor cell survival (TCS) was calculated by using the following equation: TCS = (ODdrug-exposed well/mean ODcontrol wells) × 100%. The IC50 value, the drug concentration that is lethal to 50% of the tumor cells, was calculated from the appropriate dose-response curves in Dotmatics software.

[2] = system: CCRF-CEM cells; experiment: Cell cycle and apoptosis analysis (propidium iodide flow cytometry); type: cell-based, human
Description: (§4) Together with the treated cells, control sample containing vehicle was harvested at the same time point after 24 h. After another 24 hours, cells were then washed with cold PBS and fixed in 70% ethanol added dropwise and stored overnight at -20°C. Afterwards, cells were washed in hypotonic citrate buffer, treated with RNAse (50 μg/mL) and stained with propidium iodide. Flow cytometer using a 488 nm single beam laser (Becton Dickinson) was used for measurement. Cell cycle was analyzed in the program ModFitLT (Verity), and apoptosis was measured in logarithmic model expressing percentage of the particles with propidium content lower than cells in G0/G1 phase (<G1) of the cell cycle. Half of the sample was used for pH3^Ser10 antibody (Sigma) labeling and subsequent flow cytometry analysis of mitotic cells.

[3] = system: HCT116p53-/-; experiment: Cytotoxic MTS assay, HCT116p53-/-; type: cell-based; conditions: Homo sapiens, 72 h, p53 knock-down colorectal tumor
Description: as §1, §2, §3

[4] = system: CCRF-CEM cells; experiment: BrDU incorporation analysis (DNA synthesis); type: cell-based, human; parameters: DNA synthesis: unit not given here
Description: as §4
For this analysis, the same procedure of cultivation as previously was used. Before harvesting, 10 μM 5-bromo-2-deoxyuridine (BrDU), was added to the cells for puls-labeling for 30 min. Cells were fixed with ice-cold 70% ethanol and stored overnight. Before the analysis, cellswere washed with PBS, and resuspended in 2 M HCl for 30 min at room temperature to denature their DNA. Following neutralization with 0.1 M Na2B4O7 (Borax), cells were washed with PBS containing 0.5% Tween-20 and 1% BSA. Staining with primary anti-BrDU antibody (Exbio) for 30 min at room temperature in the dark followed. Cells were than washed with PBS and stained with secondary antimouse-FITC antibody (Sigma). Cells were then washed with PBS again and incubated with propidium iodide (0.1 mg/mL) and RNAse A (0.5 mg/mL) for 1 h at room temperature in the dark and afterwards analyzed by flow cytometry using a 488 nm single beam laser (FACSCalibur, Becton Dickinson).

[5] = system: CCRF-CEM; experiment: Cytotoxic MTS assay, CCRF-CEM; type: cell-based; conditions: Homo sapiens, 72 h, T-lymphoblastic leukemia
Description: as §1, §2, §3

[6] = system: A549; experiment: Cytotoxic MTS assay, A549; type: cell-based; conditions: Homo sapiens, 72 h, lung adenocarcinoma
Description: as §1, §2, §3

[7] = system: K562-TAX; experiment: Cytotoxic MTS assay, K562-TAX; type: cell-based; conditions: Homo sapiens, 72 h, paclitaxel resistant subline of K562
Description: as §1, §2, §3

[8] = system: MRC-5; experiment: Cytotoxic MTS assay, MRC-5 fibroblasts; type: cell-based; conditions: Homo sapiens, MRC5, 72 h, non-tumor fibroblasts
Description: as §1, §2, §3

[9] = system: BJ; experiment: Cytotoxic MTS assay, BJ fibroblasts; type: cell-based; conditions: Homo sapiens, 72 h, non-tumor fibroblasts
Description: as §1, §2, §3

[10] = system: CCRF-CEM cells; experiment: BrU incorporation analysis (RNA synthesis); type: cell-based, human; parameters: RNA synthesis: unit not given here
Description: as §4
Cells were cultured and treated as above. Before harvesting, pulse-labeling with 1 mM 5-bromouridine (BrU) for 30 min followed. The cells were then fixed in 1% buffered paraformaldehyde with 0.05% of NP-40 in room temperature for 15 min, and then stored in 4°C overnight. Before measurement, they werewashed in PBS with 1% glycin, washed in PBS again, and stained by primary anti-BrDU antibody crossreacting to BrU (Exbio) for 30 min at room temperature in the dark. After another washing step in PBS cells were stained by secondary antimouse-FITC antibody (Sigma). Following the staining, cells were washed with PBS and fixed with 1% PBS buffered paraformaldehyde with 0.05% of NP-40 for 1 hour. Cells were washed by PBS, incubated with propidium iodide (0.1 mg/mL) and RNAse A (0.5 mg/mL) for 1 h at room temperature in the dark, and finally analyzed by flow cytometry using a 488 nm single beam laser (FACS Calibur, Becton Dickinson).

[11] = system: K562; experiment: Cytotoxic MTS assay, K562; type: cell-based; conditions: Homo sapiens, 72 h, leukemia
Description: as §1, §2, §3

[12] = system: CCRF-CEM cells; experiment: pH3Ser10 antibody labeling, flow cytometry of mitotic cells; type: cell-based, human
Description: as §4

[13] = system: CEM-DNR; experiment: Cytotoxic MTS assay, CEM-DNR; type: cell-based; conditions: Homo sapiens, 72 h, daunorubicin resistant subline of CCRF-CEM
Description: as §1, §2, §3

[14] = system: HCT116; experiment: Cytotoxic MTS assay, HCT116; type: cell-based; conditions: Homo sapiens, HCT-116, 72 h, colorectal tumor
Description: as §1, §2, §3

Row | Compound | IC50 [1] [µM] | G0/G1 (%) ([2]; 1 × IC50) | G2/M (%) ([2]; 1 × IC50) | S (%) ([2]; 1 × IC50) | Sub G1 (%) ([2]; 1 × IC50) | G0/G1 (%) ([2]; 5 × IC50) | G2/M (%) ([2]; 5 × IC50) | S (%) ([2]; 5 × IC50) | Sub G1 (%) ([2]; 5 × IC50) | IC50 [3] [µM] | effect on DNA synthesis (in words) [4] | DNA synthesis ([4]; 1 × IC50, BrDU incorporation) | DNA synthesis ([4]; 5 × IC50, BrDU incorporation) | IC50 [5] [µM] | IC50 [6] [µM] | IC50 [7] [µM] | IC50 [8] [µM] | IC50 [9] [µM] | effect on RNA synthesis (in words) [10] | RNA synthesis ([10]; 1 × IC50, BrU incorporation) | other results
1 | C=C(CN=[N+]=[N-])[C@@H]1CC[C@]2(C(=O)O)CC[C@]3(C)C(CCC4[C@@]5(C)CC[C@H](OC(C)=O)C(C)(C)C5CC[C@]43C)C12 (stereo partly drawn) [Compound 6, 3β-O-Acetyl-30-azidobetulinic acid] | 20.9 | 49.3 | 20.3 | 30.4 | 10.7 | 41.4 | 23.8 | 34.8 | 70.0 | 19.7 | inhibiting | 33.0 | 1.00 | 7.4 | 17.6 | 15.5 | 20 | 26.7 | inhibiting | 14.1 | RNA synthesis ([10]; 5 × IC50, BrU incorporation): 1.70; IC50 [11]: 12.3 µM; pH3Ser10 (%) ([12]; 1 × IC50): 1.80%; pH3Ser10 (%) ([12]; 5 × IC50): 2.68%; IC50 [13]: 19.2 µM; IC50 [14]: 18.6 µM
2 | C=C(Cn1cc(-c2ccccn2)nn1)[C@@H]1CC[C@]2(C(=O)O)CC[C@]3(C)C(CCC4[C@@]5(C)CC[C@H](OC(C)=O)C(C)(C)C5CC[C@]43C)C12 (stereo partly shown) [Compound 9c] | 16 | 48.9 | 20.3 | 30.9 | 7.2 | 40.5 | 21.0 | 38.5 | 65.6 | 13.7 | inhibiting | 20.3 | 2.90 | 9 | 13.2 | 13.8 | 27.6 | 29.5 | inhibiting | 25.4 | RNA synthesis ([10]; 5 × IC50, BrU incorporation): 0.40; IC50 [11]: 22.1 µM; pH3Ser10 (%) ([12]; 1 × IC50): 1.47%; pH3Ser10 (%) ([12]; 5 × IC50): 0.89%; IC50 [13]: 14.4 µM; IC50 [14]: 30.3 µM
3 | C=C(Cn1cc(-c2ccccc2C=O)nn1)[C@@H]1CC[C@]2(C(=O)O)CC[C@]3(C)C(CCC4[C@@]5(C)CC[C@H](OC(C)=O)C(C)(C)C5CC[C@]43C)C12 (stereo partly shown) [Compound 9b] | 12.8 | 58.6 | 19.5 | 21.9 | 10.8 | 35.7 | 18.1 | 46.2 | 51.9 | 9.5 | inhibiting | 22.6 | 0.55 | 3.3 | 14.8 | 3.9 | 28.9 | 31.3 | inhibiting | 15.8 | inhibition of the cell cycle in G0/G1 (in words) [2]: highest accumulation; RNA synthesis ([10]; 5 × IC50, BrU incorporation): 0.08; IC50 [11]: 3.6 µM; pH3Ser10 (%) ([12]; 1 × IC50): 1.19%; pH3Ser10 (%) ([12]; 5 × IC50): 0.37%; IC50 [13]: 4 µM; IC50 [14]: 6.4 µM
